The source made the active and inactive calls. No cut-off for these calls is given here.
How the values were obtained:
MDA-MB-231 [1] = assay: Antiproliferative activity against human MDA-MB-231 cells measured after 24 hrs by MTT assay; type: functional, cell-based; details: MDA-MB-231, 24 h
[2] = molecular target: T1, Polyamine deacetylase HDAC10 (Homo sapiens, UniProt Q969S8); assay: Inhibition of recombinant human C-terminal His-tagged HDAC10 expressed in baculovirus infected Sf9 insect cells using Ac-Arg-His-Lys(Ac)-Lys(Ac)-AMC as substrate measured after 30 mins by fluorescence assay
T1 sequence (Q969S8 whole entry): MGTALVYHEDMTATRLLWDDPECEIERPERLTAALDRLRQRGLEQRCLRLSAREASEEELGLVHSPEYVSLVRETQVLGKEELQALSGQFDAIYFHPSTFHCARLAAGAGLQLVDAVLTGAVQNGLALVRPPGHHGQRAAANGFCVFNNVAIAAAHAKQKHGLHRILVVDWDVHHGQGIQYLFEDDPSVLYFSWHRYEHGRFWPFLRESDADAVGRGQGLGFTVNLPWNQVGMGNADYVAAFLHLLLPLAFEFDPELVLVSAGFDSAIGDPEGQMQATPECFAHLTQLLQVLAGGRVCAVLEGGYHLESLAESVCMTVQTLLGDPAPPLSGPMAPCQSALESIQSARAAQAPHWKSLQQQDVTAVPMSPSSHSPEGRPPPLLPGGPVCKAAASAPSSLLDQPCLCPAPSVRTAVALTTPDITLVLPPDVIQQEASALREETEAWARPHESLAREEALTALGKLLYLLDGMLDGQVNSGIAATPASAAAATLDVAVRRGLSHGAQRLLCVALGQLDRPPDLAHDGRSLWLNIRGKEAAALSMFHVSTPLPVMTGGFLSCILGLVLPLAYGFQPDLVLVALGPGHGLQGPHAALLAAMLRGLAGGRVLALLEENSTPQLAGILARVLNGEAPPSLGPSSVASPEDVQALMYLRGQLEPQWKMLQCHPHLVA

Histone deacetylase 11 = molecular target: T2, Histone deacetylase 11 (Homo sapiens, UniProt Q96DB2); assay: Inhibition of recombinant human N-terminal His-tagged HDAC11 expressed in baculovirus infected Sf9 insect cells using Ac-Arg-His-Lys(Ac)-Lys(Ac)-AMC as substrate measured after 30 mins by fluorescence assay
T2 sequence (Q96DB2 whole entry): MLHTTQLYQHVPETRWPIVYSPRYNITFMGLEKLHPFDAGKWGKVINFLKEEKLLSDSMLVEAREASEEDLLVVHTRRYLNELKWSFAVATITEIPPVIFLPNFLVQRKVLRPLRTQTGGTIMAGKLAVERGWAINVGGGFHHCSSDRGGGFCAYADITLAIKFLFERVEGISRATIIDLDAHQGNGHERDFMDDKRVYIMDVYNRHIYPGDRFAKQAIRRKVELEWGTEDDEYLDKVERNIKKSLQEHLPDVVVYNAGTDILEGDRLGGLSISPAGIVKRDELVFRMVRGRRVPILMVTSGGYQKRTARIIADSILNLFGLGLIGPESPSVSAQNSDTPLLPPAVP

[3] = molecular target: T3, Protein deacetylase HDAC6 (Homo sapiens) (UniProt Q9UBN7); assay: Inhibition of HDAC6 in human MDA-MB-231 cells assessed as increase in HSP90 acetylation at 2.5 to 10 uM measured after 24 hrs by Western blot analysis; type: cell-based; details: dose 2.5-10 µM
T3 sequence (whole entry): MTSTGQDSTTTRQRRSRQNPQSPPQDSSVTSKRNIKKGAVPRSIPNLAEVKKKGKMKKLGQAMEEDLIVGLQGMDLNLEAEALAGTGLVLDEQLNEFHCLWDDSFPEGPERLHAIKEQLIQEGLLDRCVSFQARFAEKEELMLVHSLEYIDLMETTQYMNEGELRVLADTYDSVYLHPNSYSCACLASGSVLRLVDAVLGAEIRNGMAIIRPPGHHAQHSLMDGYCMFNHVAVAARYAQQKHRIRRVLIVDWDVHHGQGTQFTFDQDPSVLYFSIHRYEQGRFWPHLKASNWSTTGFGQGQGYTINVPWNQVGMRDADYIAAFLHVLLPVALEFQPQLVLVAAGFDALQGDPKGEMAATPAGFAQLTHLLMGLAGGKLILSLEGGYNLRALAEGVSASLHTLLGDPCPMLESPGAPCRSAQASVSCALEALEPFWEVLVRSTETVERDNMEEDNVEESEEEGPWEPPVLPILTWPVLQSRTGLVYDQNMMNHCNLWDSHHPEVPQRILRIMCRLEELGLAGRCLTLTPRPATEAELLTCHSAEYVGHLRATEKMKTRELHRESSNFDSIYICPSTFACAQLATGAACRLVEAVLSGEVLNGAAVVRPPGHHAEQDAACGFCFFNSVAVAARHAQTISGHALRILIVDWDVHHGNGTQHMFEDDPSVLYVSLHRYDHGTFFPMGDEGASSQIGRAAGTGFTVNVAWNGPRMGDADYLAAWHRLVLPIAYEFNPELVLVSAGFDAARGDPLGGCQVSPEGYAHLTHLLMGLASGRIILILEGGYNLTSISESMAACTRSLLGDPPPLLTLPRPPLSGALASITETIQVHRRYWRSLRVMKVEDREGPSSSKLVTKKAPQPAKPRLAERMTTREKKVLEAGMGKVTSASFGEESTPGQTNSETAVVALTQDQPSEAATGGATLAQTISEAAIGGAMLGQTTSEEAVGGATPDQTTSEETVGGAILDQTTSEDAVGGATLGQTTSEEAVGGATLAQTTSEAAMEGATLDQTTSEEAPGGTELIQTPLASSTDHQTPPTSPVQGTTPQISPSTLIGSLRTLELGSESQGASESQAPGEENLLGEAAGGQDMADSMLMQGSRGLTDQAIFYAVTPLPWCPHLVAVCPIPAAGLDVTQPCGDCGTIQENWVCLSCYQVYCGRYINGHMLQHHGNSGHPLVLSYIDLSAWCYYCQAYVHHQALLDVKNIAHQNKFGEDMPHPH

MDA-MB-231 [4] = assay: Induction of apoptosis in human MDA-MB-231 cells assessed as necrotic cells at 10 uM measured after 24 hrs by Annexin-V/propidium iodide staining based flow cytometry (reference value: 0.22 to 0.46%); type: functional
MDA-MB-231 [5] = assay: Induction of apoptosis in human MDA-MB-231 cells assessed as increase in cleaved caspase-8 expression at 2.5 to 10 uM measured after 24 hrs by Western blot analysis; type: functional, cell-based; details: dose 2.5-10 µM
MDA-MB-231 [6] = assay: Inhibition of cell migration in human MDA-MB-231 cells at 2.5 to 10 uM measured after 24 hrs using crystal violet staining by phase-contrast microscopy based transwell assay; type: functional; details: dose 2.5-10 µM
MDA-MB-231 [7] = assay: Inhibition of cell migration in human MDA-MB-231 cells assessed as increase in E-cadherin expression at 2.5 to 10 uM measured after 24 hrs Western blot analysis; type: functional, cell-based; details: dose 2.5-10 µM

IC50 (MDA-MB-231 [1]): 2.37 µM
IC50 [2]: 0.0782 µM
IC50 (Histone deacetylase 11): > 1 µM
inhibition [3]: Active
SMILES: COc1cc(OC)c2c(N3CCS(=O)(=O)CC3)nc(-c3cc(C)c(OCCCCCC(=O)NO)c(C)c3)nc2c1
Activity (MDA-MB-231 [4]): 0.26%
Activity (MDA-MB-231 [5]): Active
inhibition (MDA-MB-231 [6]): Active
Activity (MDA-MB-231 [7]): Active

Source: ChEMBL document CHEMBL4765420, “Design, synthesis and biological evaluation of novel HDAC inhibitors with improved pharmacokinetic profile in breast cancer” (Eur J Med Chem, 2020)
